From patent publication US6710055B2, “Disubstituted bicyclic heterocycles, the preparation thereof, and their use as pharmaceutical compositions” (Boehringer Ingelheim Pharma GmbH & Co., KG, priority 1997, dated 2004)
Like-named read-outs stand apart in the source and are kept apart here.

Experiments:
Test thrombin (bovine) = target: T1, Test thrombin (bovine) (Bos taurus, UniProt P00735); assay: Thrombin time in human citrated plasma (Biomatic B10 coagulometer); assay type: biochemical
T1 construct: purchased Behring Werke, Marburg
Procedure: were investigated as follows for their effects on thrombin time:
Materials: plasma, from human citrated blood.
Test thrombin (bovine), 30U/mL, Behring Werke, Marburg
Diethylbarbiturate acetate buffer, ORWH 60/61, Behring Werke, Marburg
Biomatic B10 coagulometer, Sarstedt
The thrombin time was determined using a Biomatic B10 coagulometer made by Messrs. Sarstedt. As the test substance, 0.1 mL of human citrated plasma and 0.1 mL diethylbarbiturate buffer (DBA buffer) were added to the test strip prescribed by the manufacturer. The mixture was incubated for one minute at 37° C. The clotting reaction was started by the addition of 0.3 U test thrombin in 0.1 mL DBA buffer. The time is measured using the apparatus from the addition of the thrombin up to the clotting of the mixture. Mixtures to which 0.1 mL of DBA buffer were added were used as the controls.

thrombocyte aggregation = assay: Inhibitory effect on thrombocyte aggregation; assay type: cell-based
rats = details: doses of up to 10 mg/kg i.v.
[1] = concentration at which the thrombin time is double compared with the control, human citrated plasma, 0.3 U test thrombin (bovine), 37° C.

In the case of `CCOC(=O)CCN(c1ccccc1)S(=O)(=O)c1ccc2c(c1)nc(CNc1ccc(C(=N)N)cc1)n2C.Cl`, the melting point was 188 to 191 °C.

In the case of `N=C(N)c1ccc(NCc2nc3cc(C(=O)N(CCC(=O)O)c4ccccc4)ccc3s2)cc1` [A, 2-[N-(4-amidinophenyl)aminomethyl]benzthiazole-5-carboxylic acid-N-phenyl-N-(2-carboxyethyl)amide], the “Thrombin time (ED200 in μM)” value (Test thrombin (bovine); [1]) was 0.04 µM.

With `Cn1c(CCc2ccc(C(=N)N)cc2)nc2cc(C(=O)N(CCCC(=O)O)c3ccccc3)ccc21` [B, 1-methyl-2-[2-(4-amidinophenyl)ethyl]benzimidazol-5-yl-carboxylic acid-N-phenyl-N-(3-hydroxycarbonylpropyl)amide] the “Thrombin time (ED200 in μM)” value (Test thrombin (bovine); [1]) was 0.06 µM.

For `Cn1c(COc2ccc(C(=N)N)cc2)nc2cc(C(=O)N(CC(=O)O)c3ccccc3)ccc21` [C, 1-methyl-2-[(4-amidinophenyl)oxymethyl]benzimidazol-5-yl-carboxylic acid-N-phenyl-N-(hydroxycarbonylmethyl)amide], the “Thrombin time (ED200 in μM)” value (Test thrombin (bovine); [1]) was 0.15 µM.

With `Cn1c(CNc2ccc(C(=N)N)cc2)nc2cc(C(=O)N(CCC(=O)O)c3ccccc3)ccc21` [D, 1-methyl-2-[N-(4-amidinophenyl)aminomethyl]benzimidazol-5-yl-carboxylic acid-N-phenyl-N-(2-hydroxycarbonylethyl)amide] the “Thrombin time (ED200 in μM)” value (Test thrombin (bovine)) was 0.03 µM.

With `Cn1c(CNc2ccc(C(=N)N)cc2)nc2cc(C(=O)N(CC(=O)O)c3ccccn3)ccc21` [E, 1-methyl-2-[N-(4-amidinophenyl)aminomethyl]benzimidazol-5-yl-carboxylic acid-N-(2-pyridyl)-N-(hydroxycarbonylmethyl)amide] the “Thrombin time (ED200 in μM)” value (Test thrombin (bovine); [1]) was 0.09 µM.

In the case of `CN(Cc1nc2cc(C(=O)N(CCC(=O)O)c3ccccc3)ccc2s1)c1ccc(C(=N)N)cc1.Cl` [Example 16, 2-[N-(4-amidinophenyl)-N-methylaminomethyl]benzothiazol-5-yl-carboxyiic acid-N-phenyl-N-(2-hydroxycarbonylethyl)amide hydrochloride], the “inhibitory effect on thrombocyte aggregation” value (thrombocyte aggregation) was “slight inhibitory effect”.

For `Cn1c(CCc2ccc(C(=N)N)cc2)nc2cc(C(=O)N(CCc3nnn[nH]3)c3ccccc3)ccc21` [F, 1-methyl-2-[2-(4-amidinophenyl)ethyl]benzimidazol-5-yl-carboxylic acid-N-phenyl-N-[2-(1H-tetrazol-5-yl)ethyl]amide], the “Thrombin time (ED200 in μM)” value (Test thrombin (bovine); [1]) was 0.03 µM.

In the case of `[H]/N=C(/N)c1ccc(NCc2nc3cc(C(=O)N(CCC(=O)O)c4ccccn4)ccc3n2C)cc1` [G, 1-methyl-2-[N-(4-amidinophenyl)aminomethyl]benzimidazol-5-yl-carboxylic acid-N-(2-pyridyl)-N-(2-hydroxycarbonylethyl)amide], the “acute toxic side effects” value (rats) was “no acute toxic side effects were observed” and the “Thrombin time (ED200 in μM)” value (Test thrombin (bovine)) was 0.03 µM.
